From patent US10111877B2, “Modulators of androgen synthesis” (Tangent Reprofiling Limited, priority 2012, dated 2018)
Read-outs that look alike come from different tables or passages of the source.

Columns and labels:
[1] = test system: PC3 cells; test: Cell metabolism inhibition assay (Cell titre Blue) with fatty acids; type: cell-based; conditions: for Cellular Metabolic Activity: 100% = undrugged media
Method: A cell metabolism inhibition assay was performed to determine the effect of different fatty acids on cellular metabolic rate. The fatty acids tested were α-Linolenic acid, omega 3 fatty acid (ALA), Arachidonic acid, omega 6 fatty acid (AA), 9Z, 11E conjugated Linoleic acid, omega 7 fatty acid (CLA), Docosahexaenoic acid, omega 3 fatty acid (DHA), Eicosapentaenoic acid, omega 3 fatty acid (EPA), Oleic acid, omega 9 fatty acid (OA), Ricinoleic acid, omega 9 hydroxylated fatty acid (RA).
PC3 cells are from a cell line derived from a hormone refractory prostate cancer and are known to overexpress HSD10. PC3 cells were seeded at a density of 4,000 cells per well in a 96 well plate, and incubated at 37° C., 5% CO2 for 48 hours in standard growth media (F12K nutrient media, 7% Fetal Calf Serum, 2 mM L-Glutamine, 45 mg/L ascorbic acid). The media was then removed by pipette and replaced with the appropriate drug treatment as follows: 20 μM, or 40 μM, or 60 μM, or 80 μM, or 100 μM ALA in PC3 treatment media (F12K nutrient media, 125 uM fatty acid free BSA, 2 mM L-Glutamine, 45 mg/L ascorbic acid); 20 μM, or 40 μM, or 60 μM, or 80 μM, or 100 μM AA in PC3 treatment media; 20 μM, or 40 μM, or 60 μM, or 80 μM, or 100 μM CLA in PC3 treatment media; 20 μM, or 40 μM, or 60 μM, or 80 μM, or 100 μM DHA in PC3 treatment media; 20 μM, or 40 μM, or 60 μM, or 80 μM, or 100 μM EPA in PC3 treatment media; 20 μM, or 40 μM, or 60 μM, or 80 μM, or 100 μM OA in PC3 treatment media; and 20 μM, or 40 μM, or 60 μM, or 80 μM, or 100 μM RA in PC3 treatment media. After incubation in the drug treatment for 72 hours at 37° C., 5% CO2, 50 μL Cell titre Blue Assay Reagent was added to each well and the plate return to incubation at 37° C., 5% CO2, for a further 24 hours, at which time the absorbance at 620 nm was recorded. The reduction of absorbance at 620 nm represents a higher metabolic rate, and the data below has been normalized such that 100% represents cells that have been grown in the presence of undrugged media, and 0% represents wells containing no cells.

[2] = target: T1, HSD10 (Homo sapiens, UniProt Q99714); test: HSD10 Enzyme Inhibition Assay; type: biochemical; conditions: 50 μM drug
T1 construct: endogenous in cells; host or cells: PC3 cells
T1 sequence (Q99714 1-261): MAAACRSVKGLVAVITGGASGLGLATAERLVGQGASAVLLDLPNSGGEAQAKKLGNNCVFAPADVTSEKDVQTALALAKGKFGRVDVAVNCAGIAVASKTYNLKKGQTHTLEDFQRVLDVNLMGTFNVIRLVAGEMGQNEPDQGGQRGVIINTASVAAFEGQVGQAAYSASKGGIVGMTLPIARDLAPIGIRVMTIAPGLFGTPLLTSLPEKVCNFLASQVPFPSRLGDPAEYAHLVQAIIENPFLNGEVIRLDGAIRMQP
Method: An HSD10 inhibition assay was performed to determine the effect of several anti-psychotics on enzyme activity.
(§1) PC3 cells are from a cell line derived from a hormone refractory prostate cancer and are known to overexpress HSD10. […] Cells line tests were carried out in presence and absence of testosterone for comparison. After incubation in the drug treatment for 96 hours at 37° C., 5% CO2, the supernatant was removed from all wells of cells, and cells washed with 200 μL PBS.
(§2) After removal of the PBS, cell number was determined using a lysed cell LDH assay (CytoTox 96 Non-radioactive cytotoxicity assay (LDH Assay); Promega, Co., Madison Wis.). Cells were lysed with 0.9% Triton-X in PBS for 2 hours at 37° C., 5% CO2 and 50 μL of this cell lysate was transferred to a fresh 96 well plate. About 50 μL of CytoTox 96 assay reagent was added to the transferred cell lysate and this mixture was incubated at room temperature in the dark for 20 minutes. After the addition of 50 μL stop reagent, the optical absorbance was determined for each incubated mixture at 492 nm. […] The mean and standard error was calculated from at least 3 wells.

[3] = test system: PC3 cells; test: Cell growth inhibition, lysed cell LDH assay, prostate cancer cell line; type: cell-based; conditions: 96 hours, 100% = no drug treatment (Table 3);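 further: 100% is cells receiving no drug treatment and 0% is wells without cells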
Method: To determine whether Risperidone could be effective in inhibiting growth of cancer cells overexpressing HSD10, a lysed cell LDH assay was conducted using cells from a PC3 cell line.
as §1, §2
To determine the optimal concentration of Risperidone and CLA necessary to inhibit cell growth, a lysed cell LDH assay was conducted using various concentration of Risperidone and CLA. PC3 cells were cultured and a lysed cell LDH assay was conducted as described above, except that the various drug treatments evaluated contained either 0 μM, 12.5 μM, 25 μM, or 50 μM Risperidone in combination with 0 μM, 6.25 μM, 12.5 μM, 25 μM, 50 μM, or 100 μM CLA (see Table 3).
as §2, with “PBS from the cell cultures described above,” for “PBS,”, “assay.” for “assay (CytoTox 96 Non-radioactive cytotoxicity assay (LDH Assay); Promega, Co., Madison Wis.).”

[4] = test system: PC-3M-luc cells; test: Orthotopic prostate tumor mouse xenograft model; conditions: single drug
Method: Immunodeficeint male mice (athymic nude mice) were acclimated to the laboratory for at least one week prior to implantation of tumor. PC-3M-luc cells obtained directly from in vitro culture were then injected into the prostate on Day 0. Animals were divided into six groups of 12 mice each. Primary tumor size and metastases were assessed by bioluminescence measurements on day 6, 13, 20, 27, 34, and 40. On day 7 a five week treatment regime was initiated. Both individual drug and high and low dose combination were examined by administering the drugs twice daily on an individual body weight basis using a dose escalation protocol (Table 7). If tumors grew above a pre-determined level, or mice lost more than 10% of bodyweight, they were culled. The primary tumor was excised, weighed and measured. Individual organs were imaged to assess metastatic burden.

[5] = read-out: Oxidative Activity Drug Inhibition
[6] = read-out: Reductive Activity Drug Inhibition

CCCCC/C=C\C/C=C\C/C=C\C/C=C\CCCC(=O)O [AA, Arachidonic acid]
Cellular Metabolic Activity ([1]; 20 μM fatty acid): 107 ± 3.9%
Cellular Metabolic Activity ([1]; 40 μM fatty acid): 90 ± 5.6%
Cellular Metabolic Activity ([1]; 60 μM fatty acid): 78 ± 6.4%
Cellular Metabolic Activity ([1]; 80 μM fatty acid): 66 ± 7.2%
Cellular Metabolic Activity ([1]; 100 μM fatty acid): 60 ± 5.9%

CC/C=C\C/C=C\C/C=C\CCCCCCCC(=O)O [ALA, α-Linolenic acid]
Cellular Metabolic Activity ([1]; 20 μM fatty acid): 118 ± 0.5%
Cellular Metabolic Activity ([1]; 40 μM fatty acid): 118 ± 0.9%
Cellular Metabolic Activity ([1]; 60 μM fatty acid): 118 ± 0.2%
Cellular Metabolic Activity ([1]; 80 μM fatty acid): 117 ± 0.9%
Cellular Metabolic Activity ([1]; 100 μM fatty acid): 114 ± 1.2%

CN(C)CCCN1c2ccccc2Sc2ccc(Cl)cc21 [Chlorpromazine]
Oxidative Activity Rate [2]: 7.7 µM/min
Reductive Activity Rate [2]: 7.2 µM/min
inhibition at 50 µM [2, 5]: 8%
inhibition at 50 µM [2, 6]: 18%

CN(C)CCCN1c2ccccc2CCc2ccc(Cl)cc21 [Clomipramine]
Oxidative Activity Rate [2]: 2.3 µM/min
Reductive Activity Rate [2]: 7.5 µM/min
inhibition at 50 µM [2, 5]: 73%
inhibition at 50 µM [2, 6]: 15%

CN1CCN(C2=Nc3cc(Cl)ccc3Nc3ccccc32)CC1 [Clozapine]
inhibition at 50 µM [2, 5]: 43%
inhibition at 50 µM [2, 6]: 15%

CC/C=C\C/C=C\C/C=C\C/C=C\C/C=C\C/C=C\CCC(=O)O [DHA, Docosahexaenoic acid]
Cellular Metabolic Activity ([1]; 20 μM fatty acid): 90 ± 8.2%
Cellular Metabolic Activity ([1]; 40 μM fatty acid): 74 ± 7.6%
Cellular Metabolic Activity ([1]; 60 μM fatty acid): 58 ± 5.9%
Cellular Metabolic Activity ([1]; 80 μM fatty acid): 49 ± 7.7%
Cellular Metabolic Activity ([1]; 100 μM fatty acid): 34 ± 7.0%
metabolic inhibition ([1]; 60-100 μM range): 40-65%
Percentage of Lysed Cells ([3]; 12.5 μM of each drug): 109 ± 1.1%
Percentage of Lysed Cells ([3]; 25 μM of each drug): 102 ± 3.5%
Percentage of Lysed Cells ([3]; 50 μM of each drug): 95 ± 3.8%

CN(C)CCOC(c1ccccc1)c1ccccc1 [Diphenhydramine]
Oxidative Activity Rate [2]: 8.0 µM/min
Reductive Activity Rate [2]: 8.3 µM/min
inhibition at 50 µM [2, 5]: 5%
inhibition at 50 µM [2, 6]: 6%

CC(=O)O[C@@]12CO[C@@H]1C[C@H](O)[C@@]1(C)C(=O)[C@H](O)C3=C(C)[C@@H](OC(=O)[C@H](O)[C@@H](NC(=O)OC(C)(C)C)c4ccccc4)C[C@@](O)([C@@H](OC(=O)c4ccccc4)[C@H]21)C3(C)C [Docetaxel]
body weight throughout the study ([4]; by Day 40): on a trend of losing weight
Tumor Growth Inhibition ([4]; calculated on Day 34, dosing per Table 7): 94%
Animal Survival (overall survivorship) ([4]; day 40, dosing per Table 7): 100%

CC/C=C\C/C=C\C/C=C\C/C=C\C/C=C\CCCC(=O)O [EPA, Eicosapentaenoic acid]
Cellular Metabolic Activity ([1]; 20 μM fatty acid): 94 ± 9.4%
Cellular Metabolic Activity ([1]; 40 μM fatty acid): 71 ± 8.2%
Cellular Metabolic Activity ([1]; 60 μM fatty acid): 67 ± 7.4%
Cellular Metabolic Activity ([1]; 80 μM fatty acid): 49 ± 7.4%
Cellular Metabolic Activity ([1]; 100 μM fatty acid): 37 ± 5.9%
metabolic inhibition ([1]; 80-100 μM range): 50-65%

CCCCCCCC/C=C\CCCCCCCC(=O)O [OA, Oleic acid]
Cellular Metabolic Activity ([1]; 20 μM fatty acid): 109 ± 2.7%
Cellular Metabolic Activity ([1]; 40 μM fatty acid): 108 ± 0.9%
Cellular Metabolic Activity ([1]; 60 μM fatty acid): 111 ± 2.2%
Cellular Metabolic Activity ([1]; 80 μM fatty acid): 110 ± 2.2%
Cellular Metabolic Activity ([1]; 100 μM fatty acid): 111 ± 2.0%

CCCCCC[C@@H](O)C/C=C\CCCCCCCC(=O)O [RA, Ricinoleic acid]
Cellular Metabolic Activity ([1]; 20 μM fatty acid): 91 ± 6.0%
Cellular Metabolic Activity ([1]; 40 μM fatty acid): 94 ± 4.7%
Cellular Metabolic Activity ([1]; 60 μM fatty acid): 90 ± 6.2%
Cellular Metabolic Activity ([1]; 80 μM fatty acid): 90 ± 6.0%
Cellular Metabolic Activity ([1]; 100 μM fatty acid): 94 ± 3.1%
